Experimental data from patent US20220249522A1, “Hypoxia Targeting Compositions and Combinations Thereof with a PARP Inhibitor and Methods of Use Thereof” (The Board of Trustees of the Leland Stanford Junior …, priority 2018, published 2022).

Columns and labels:
[1] = test system: PARP enzyme activity in OVCAR8 xenografts; assay: PAR levels in tumor lysates of xenografts (western blot); format: in vivo; details: olaparib 50 mg/kg daily intraperitoneal for 2 days
Procedure: OVCAR8 xenografts were established by subcutaneous injection of tumor cells in serum-free media/matrigel mix. Once tumors reached a size of about 100 mm^3, animals were divided into the following groups: (i) vehicle (10% 2-hydroxy-propyl-β-cyclodextrin/PBS) once a day via intraperitoneal injection (ii) olaparib (50 mg/kg) administered daily via intraperitoneal injection for 2 days. 3 animals were used per group.
Following completion of each treatment regimen, tumors were collected for analysis (FIG. 7A). PARP enzyme activity (measured via formation of PAR) was evaluated using western blot analysis.

[2] = test system: PARP enzyme activity in HT1080 cells; assay: Western blot analysis of PAR formation; format: cell-based; details: olaparib 1 μM or talazoparib 10 nM, 7 days
Procedure: (§1) FIGS. 5A and 5B show western blot analyzes of the levels of poly(ADP-ribose) (PAR) in OVCAR8 cells (FIG. 5A) and HT1080 cells (FIG. 5B) following treatment with a vehicle, olaparib (AZD-2281; 1 μM), or talazoparib (BMN 673; 10 nM) cultured in 21% oxygen or 2% oxygen conditions.
(§2) Western blot analysis of PAR formation was conducted in OVCAR8 cells and HT1080 cells following treatment with a vehicle, olaparib (AZD-2281; 1 μM), or talazoparib (BMN 673; 10 nM) cultured in 21% oxygen or 2% oxygen conditions for 7 days. PAR levels in cell lysates were quantified using western blot.

[3] = test system: PARP enzyme activity in OVCAR8 cells; assay: Western blot analysis of PAR formation; format: cell-based; details: olaparib 1 μM or talazoparib 10 nM, 7 days
Procedure: as §1, §2

HT1080 cell line = assay: Colony formation survival after 7 days PARP inhibitor in 21% or 2% oxygen; format: cell-based; details: olaparib 0-1 μM or talazoparib 0-10 nM; for survival fraction versus correspondingly treated samples at 21% oxygen: 2% oxygen; for survival fraction: 21% oxygen
Source text: (§3) FIGS. 1A-1D show plots of survival fraction versus olaparib (AZD-2281) concentration for SUM149 (FIG. 1A), CAPAN-1 (FIG. 1B), HT1080 (FIG. 1C), and OVCAR8 (FIG. 1D) cell lines cultured in 21% oxygen or 2% oxygen conditions.
(§4) FIGS. 2A-2D show plots of survival fraction versus talazoparib (BMN 673) concentration for SUM149 (FIG. 2A), CAPAN-1 (FIG. 2B), HT1080 (FIG. 2C), and OVCAR8 (FIG. 2D) cell lines cultured in 21% oxygen or 2% oxygen conditions.
(§5) Specifically, a series of cell lines deficient for HR were treated with PARP inhibitors (olaparib or talazoparib (BMN 673)) for 7 days in 21% oxygen (representative of normoxic conditions) or 2% oxygen (representative of hypoxic conditions). In duplicates, 250-2000 cells of each cell line were seeded in 6-well plates and treated with varying concentrations of olaparib (0-1 μM) or talazoparib (0-10 nM). At the end of the treatment, media from each well was changed to drug-free media and cells were incubated to allow for formation of colonies. At the end of each incubation, colonies were fixed in 70% ethanol and stained with Crystal Violet to facilitate counting of colonies. At least 3 biological replicates were performed for each condition tested. The HR deficient cell lines treated were SUM149 (a BRAC1 mutant, triple negative breast cancer cell line), CAPAN-1 (a BRAC2 mutant, pancreatic cancer cell line), HT1080 (an IDH mutant, fibrosarcoma cell line), and OVCAR8 (a hypermethylated BRAC1 promoter, ovarian serous adenocarcinoma (high grade) cell line).

CAPAN-1 cell line = assay: as above; format: cell-based; details: olaparib 0-1 μM or talazoparib 0-10 nM; for survival fraction versus correspondingly treated samples at 21% oxygen: 2% oxygen; for survival fraction: 21% oxygen
Source text: as §3, §4, §5

SUM149 cell line = assay: as above; format: cell-based; details: olaparib 0-1 μM or talazoparib 0-10 nM; for survival fraction versus correspondingly treated samples at 21% oxygen: 2% oxygen; for survival fraction: 21% oxygen
Source text: as §3, §4, §5

OVCAR8 cell line = assay: Colony formation survival after 7 days PARP inhibitor in 21%, 5% or 2% oxygen; format: cell-based; details: for survival in the presence of PARP inhibitor: olaparib 1 μM or talazoparib 10 nM; for survival fraction versus correspondingly treated samples at 21% oxygen: 2% oxygen; for survival fraction versus correspondingly treated samples at 21% oxygen / survival fraction: olaparib 0-1 μM or talazoparib 0-10 nM; for survival fraction: 21% oxygen
Source text: as §3, §4, §5
These observations were further evaluated using the OVCAR8 cell line samples at 21% oxygen, 5% oxygen, and 2% oxygen concentrations. Specifically, OVCAR8 cell line samples were cultured in 21% oxygen, 5% oxygen, or 2% oxygen conditions and were treated with a vehicle, olaparib (1 μM), or talazoparib (BMN 673; 10 nM) for 7 days. At the end of the treatment, media from each well was changed to a drug-free media and cells were incubated to allow for formation colonies.

[4] = test system: breast patient-derived tumor xenografts (PDTXs); assay: Olaparib efficacy in breast PDTX models in relation to hypoxia score; format: in vivo; details: archived PDTX data of Bruna et al; hypoxia signature of Buffa et al
Source text: FIGS. 7A-7D show a schematic of diagram of olaparib treatment in OVCAR8 xenografts (FIG. 7A), a Western blot analysis of PAR levels in tumor lysates (FIG. 7B), immunohistochemical staining of vehicle- and olaparib-treated tumors (FIG. 7C), and sensitivity to olaparib inversely correlates with hypoxia in Breast PDX models (FIG. 7D).
Efficacy of olaparib in a range of patient-derived tumor xenografts (PDTXs) were previously tested in vivo by Bruna et al and the results archived in a biobank (http://caldaslab.cruk.cam.ac.uk/bcape) (see Bruna et al. Cell 167, 260-274 (2016), the disclosure of which is incorporated herein by reference). The efficacy of olaparib in these breast PDTX models in relation to their hypoxia levels was analyzed. […] (Buffa et al. Br J Cancer 102, 428-35 (2010), the disclosure of which is incorporated herein by reference). This is in accordance with the data from in vitro studies.

OVCAR8 cells [5] = assay: Tirapazamine x PARPi dose matrix, survival and synergy analysis (Combenefit); format: cell-based; details: for tirapazamine doses required to achieve a synergy score of 30-40: with 10 nM BMN673; for tirapazamine dose required for a synergy score of 20-30: with 0.1 μM olaparib
Procedure: FIGS. 8A and 8B show survival percentage of OVCAR8 cells treated with olaparib (0.001-10 μM) and TPZ (0.1-50 μM) or BMN673 (0.01-20 nM) and TPZ (0.1-50 μM) (FIG. 8A), and HSA synergism analysis of OVCAR8 cells treated with varying doses of TPZ and olaparib or TPZ and BMN673 (FIG. 8B).
(§6) The effect of combining a hypoxia activated prodrug with PARPi on cellular toxicity was assessed. […] Combenefit; a validated, open-access software program was used to analyze the data and quantify possible synergistic or antagonistic drug interactions, and relative cell kill data are presented as survival curves (FIG. 8A& 9A), while synergy scores are presented in matrix format (FIG. 8B& 9B). […] Examples are highlighted with the red squares in the matrix plots. In OVCAR8 cells for example, tirapazamine doses required to achieve a synergy score of 30-40 when cells are treated with 10 nM BMN673 are 0.5-1 μM in hypoxia and 5-10 μM in normoxia.

SUM149 cells [6] = assay: Survival fraction after 96 hours tirapazamine, PARP inhibitor or combination; format: cell-based; details: tirapazamine alone 0.1 μM or 1 μM, 21% or 2% oxygen
Procedure: FIGS. 11A-11C show histograms of survival fractions of SUM149 cells treated with a vehicle, tirapazamine, olaparib, olaparib plus tirapazamine, talazoparib, or talazoparib plus tirapazamine.
(§7) The in vitro efficacy of single agent tirapazamine or a single agent PARP inhibitor (olaparib or talazoparib) or combinations of tirapazamine and a PARP inhibitor (olaparib or talazoparib) was assessed in HR deficient cell lines (OVCAR8 and SUM149) at 21% oxygen and 2% oxygen concentrations. Specifically, OVCAR8 cells were seeded and treated with one of the following for 96 hours in 21% oxygen or 2% oxygen concentrations: (i) vehicle; (ii) tirapazamine (TPZ; 0.1 μM or 1 μM); (iii) olaparib (OL; 1 μM); (iv) tirapazamine (at concentrations above) plus olaparib (1 μM); (v) talazoparib (BMN; 10 nM); or tirapazamine (at concentrations above) plus talazoparib (10 nM). […] At the end of the treatment, media from each sample was changed to a drug-free media and cells were incubated to allow for formation colonies before survival fraction was determined.

SUM149 cells [7] = assay: Tirapazamine x PARPi dose matrix, survival and synergy analysis (Combenefit); format: cell-based; details: combination with PARPi (olaparib and BMN673)
Procedure: FIGS. 9A and 9B show survival percentage of SUM149 cells treated with olaparib (0.001-10 μM) and TPZ (0.1-50 μM) or BMN673 (0.01-20 nM) and TPZ (0.1-50 μM) (FIG. 9A), and HSA synergism analysis of SUM149 cells treated with varying doses of TPZ and olaparib or TPZ and BMN673 (FIG. 9B).
as §6

[8] = test system: non-small cell lung cancer and head and neck cancer; details: background statement; cited from earlier work
OVCAR8 cells [9] = assay: Survival fraction after 96 hours tirapazamine, PARP inhibitor or combination; format: cell-based; details: tirapazamine alone 0.1 μM or 1 μM, 21% or 2% oxygen
Procedure: FIGS. 10A-10C show histograms of survival fractions of OVCAR8 cells treated with a vehicle, tirapazamine, olaparib, olaparib plus tirapazamine, talazoparib, or talazoparib plus tirapazamine.
as §7

[10] = 2% oxygen compared to 5% oxygen
[11] = 2% oxygen compared to 21% oxygen
[12] = 5% oxygen compared to 21% oxygen

SMILES	PAR formation ([2]; 2% oxygen)	PAR formation ([2]; 21% oxygen)	PAR formation ([3]; 2% oxygen)	PAR formation ([3]; 21% oxygen)	survival fraction versus correspondingly treated samples at 21% oxygen (HT1080 cell line)	survival fraction (HT1080 cell line)	survival fraction versus correspondingly treated samples at 21% oxygen (CAPAN-1 cell line)	survival fraction (CAPAN-1 cell line)	survival fraction versus correspondingly treated samples at 21% oxygen (SUM149 cell line)	survival fraction (SUM149 cell line)	survival in the presence of PARP inhibitor (OVCAR8 cell line; [10])	survival in the presence of PARP inhibitor (OVCAR8 cell line; [11])	survival fraction versus correspondingly treated samples at 21% oxygen (OVCAR8 cell line)	survival in the presence of PARP inhibitor (OVCAR8 cell line; [12])	survival fraction (OVCAR8 cell line)	other results
O=C(c1cc(Cc2n[nH]c(=O)c3ccccc23)ccc1F)N1CCN(C(=O)C2CC2)CC1 [olaparib]	reduced PAR formation	reduced PAR formation	reduced PAR formation	reduced PAR formation	higher survival fractions	reduced	higher survival fractions	reduced	higher survival fractions	reduced	significantly improved survival	significantly improved survival	higher survival fractions	significantly improved survival	reduced	PAR formation in xenograft samples [1]: no evidence of PAR formation; correlation between hypoxia score of the tumors and their sensitivity to olaparib therapy [4]: strong inverse correlation
Cn1ncnc1[C@H]1c2n[nH]c(=O)c3cc(F)cc(c23)N[C@@H]1c1ccc(F)cc1 [talazoparib]	reduced PAR formation	reduced PAR formation	reduced PAR formation	reduced PAR formation	higher survival fractions	reduced	higher survival fractions	reduced	higher survival fractions	reduced	significantly improved survival	significantly improved survival	higher survival fractions	significantly improved survival	reduced	
Nc1n[n+]([O-])c2ccccc2[n+]1[O-] [tirapazamine, 3-amino-1,2,4-benzotriazine-1,4-dioxide]																fold lower doses of tirapazamine required under hypoxic conditions to achieve similar or even higher synergy scores to normoxic conditions (OVCAR8 cells [5]; combination with PARPi (olaparib and BMN673)): 10 fold; tirapazamine doses required to achieve a synergy score of 30-40 (OVCAR8 cells [5]; hypoxia): 0.5 to 1 µM; tirapazamine doses required to achieve a synergy score of 30-40 (OVCAR8 cells [5]; normoxia): 5 to 10 µM; tirapazamine dose required for a synergy score of 20-30 (OVCAR8 cells [5]; hypoxia): 1 µM; tirapazamine dose required for a synergy score of 20-30 (OVCAR8 cells [5]; normoxia): 10 µM; cell survival fraction as compared to the vehicle (SUM149 cells [6]): did not have a significant effect; fold lower doses of tirapazamine required under hypoxic conditions to achieve similar or even higher synergy scores to normoxic conditions (SUM149 cells [7]): 10 fold; efficacy in clinical trials [8]: lack of efficacy; cell survival fraction as compared to the vehicle (OVCAR8 cells [9]): did not have a significant effect
